Reference: US10520488B2, “Method and measuring device for determination of the growth rate of biofilm” (Helmholtz-Zentrum fuer Infektionsforschung GmbH, priority 2014, dated 2019)

Tests used:
Assay type in all cases: cell-based, Pseudomonas aeruginosa
[1] = tested on: PA14 biofilms; assay: Impedance analysis (xCELLigence cell index) of PA14 biofilm growth rate / biofilm formation
Experimental: The biomass Pseudomonas aeruginosa had been measured as an exemplary biomass. Eventually also other strains can be analyzed. The 96 E-Plate had been used for a measuring time of 43 hours. The fluid culture medium LB had been introduced into the receptacles together with wild type (WT) PA14, ΔpelA deletion mutant or ΔpqsA, respectively.
A significant linear reduction of the negative cell index occurs after about 35 hours and more preferably in the time frame of the 37 hours to 42 hours. Within this time frame of 37 hours to 42 hours, the directional cell index RK=(cell index[t2]−cell index[t1])/(t2−t1) is decreasing. Thus, for such a short time frame, the value of the cell index change provides the directional cell index RK, which corresponds to the linear relation between the capacitance and the reactance having the general form of a straight line. Optionally, and in particular in case of evaluating longer time frames, the growth rate of biofilm can be calculated as function of the natural logarithm of the cell index, e.g. by the formula RK=ln(cell index[t2]−cell index[t1])/(t2−t1).
The impedance method has also been used to study the effect of antibiotics on biofilm formation of P. aeruginosa PA14. The results of the impact of ciprofloxacin (A), tobramycin (B), and meropenem (C) on biofilm formation of PA14 are shown in FIGS. 8 to 10. As examples, the antibiotics ciprofloxacin (FIGS. 8a)-c)), tobramycin (FIGS. 9a)-c)) and meropenem (FIGS. 10a)-c)) have been tested. All three antibiotics changed the impedance curves in a concentration-dependent manner, indicating effects on biofilm formation.
The effect on impedance was quantified by three parameters at varying antibiotic concentrations:
The first parameter is the time of onset of a linear decrease of the cell index, (FIGS. 8a), 9a) and 10a)).
The second parameter is the duration of a linear decrease of the cell index. This duration was determined by a linear trendline that was fitted to the data with an r^2 value of 0.97 or higher. In the graphs of FIGS. 8a), 9a) and 10a), the black vertical bars represent the time period over which the biofilm formation rate was measured to be steady, based on a straight line assigned with an r^2 of at least 0.97 (n=3 or 4).
The third parameter was the cell index slope during that time period (FIGS. 8b), 9b) and 10b)). These graphs show the concentration dependency of the biofilm formation expressed in the slope/h of the cell index (n=3 or 4).

[2] = tested on: PA14; assay: Planktonic growth curves of PA14 by OD600 (control experiment)
Source text: OD600 indicates the absorbance, or optical density, of a sample measured at a wavelength of 600 nm and indicates the concentration of cells in a liquid.

[3] = tested on: PA14 biofilms; assay: Crystal violet analysis of PA14 biofilms, absorption at 620 nm; settings: added to wild type WT PA14, LB medium, 96-Well-Plate, after 43 hours, compared to WT alone
Experimental: FIG. 5—Diagram of PA 14 biofilms determined after 43 hours with crystal violet by monitoring absorption at 620 nm;
FIG. 5 is a diagram of various types of PA14 biofilms measured by use of the 96-Well-Plate after 43 hours by use of the fluid culture medium LB with crystal violet analysis by monitoring absorption at 620 nm.

## O=C(O)c1cn(C2CC2)c2cc(N3CCNCC3)c(F)cc2c1=O [ciprofloxacin]
[1]; 0.13 μg/mL
  impedance curve reflecting biofilm formation: clearly changed the impedance curve
[1]; 0.25 μg/mL
  steady biofilm formation: not observed anymore
[1]; at increasing concentrations
  cell index slope (biofilm formation): shallower decline
[2]; 0.13 μg/mL
  planktonic growth: not impaired
[2]; 0.25 μg/mL
  planktonic growth: still possible

## C[C@@H](O)[C@H]1C(=O)N2C(C(=O)O)=C(S[C@@H]3CN[C@H](C(=O)N(C)C)C3)[C@H](C)[C@H]12 [meropenem]
[1]; 0.5 μg/ml
  induction of biofilm formation (cell index slope): this effect vanished
[1]; concentrations between 0.063 and 0.25 μg/ml
  cell index slope (biofilm formation): induced biofilm formation

## N=C(N)NCCC[C@H](N)C(=O)O [L-Arg, arginine]
[3]
  growth of biofilm (crystal violet): inhibits the growth of biofilm
[1]; 0.4% or 0.8% L-Arg added to wild type WT, evaluation time 37 to 42 hours
  directional cell index RK: about −0.004 /h
[1]; 0.4% or 0.8% L-Arg, PA14 WT, LB, evaluation time 37 to 42 hours
  reduction of the biofilm growth rate: about ½

## NC[C@H]1O[C@H](O[C@H]2[C@H](O)[C@@H](O[C@H]3O[C@H](CO)[C@@H](O)[C@H](N)[C@H]3O)[C@H](N)C[C@@H]2N)[C@H](N)C[C@@H]1O [tobramycin]
[1]; at increasing concentrations
  cell index slope (biofilm formation): shallower decline
